In ChEMBL document CHEMBL1201862, “PubChem BioAssay data set” (2004):
Calls of active or inactive are those of the source.

Key:
cells = assay type: functional
[1] = molecular target: T1, G-protein coupled receptor 55 (Homo sapiens, UniProt Q9Y2T6); assay: GPR55 agonists via beta-arrestin recruitment, primary screen, imaging, U2OS cells, beta-arrestin-GFP redistribution (AID 1961); assay type: functional
Cytochrome P450 3A4 = Cytochrome P450 3A4 (Homo sapiens, UniProt P08684); details: Potency;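 note: confirmatory qHTS run detecting inhibitors and substrates of CYP3A4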
[2] = molecular target: Alkaline phosphatase, placental type (Homo sapiens, UniProt P05187); assay: PLAP enzyme inhibitors, confirmation, biochemical, luminescence (AID 1512); assay type: functional
[3] = molecular target: T2, Alkaline phosphatase, tissue-nonspecific isozyme (Homo sapiens, UniProt P05186); assay: human TNAP enzyme inhibitors, SAR follow-up, biochemical, luminescent, dose response (AID 1056)
T2 sequence (P05186 whole entry): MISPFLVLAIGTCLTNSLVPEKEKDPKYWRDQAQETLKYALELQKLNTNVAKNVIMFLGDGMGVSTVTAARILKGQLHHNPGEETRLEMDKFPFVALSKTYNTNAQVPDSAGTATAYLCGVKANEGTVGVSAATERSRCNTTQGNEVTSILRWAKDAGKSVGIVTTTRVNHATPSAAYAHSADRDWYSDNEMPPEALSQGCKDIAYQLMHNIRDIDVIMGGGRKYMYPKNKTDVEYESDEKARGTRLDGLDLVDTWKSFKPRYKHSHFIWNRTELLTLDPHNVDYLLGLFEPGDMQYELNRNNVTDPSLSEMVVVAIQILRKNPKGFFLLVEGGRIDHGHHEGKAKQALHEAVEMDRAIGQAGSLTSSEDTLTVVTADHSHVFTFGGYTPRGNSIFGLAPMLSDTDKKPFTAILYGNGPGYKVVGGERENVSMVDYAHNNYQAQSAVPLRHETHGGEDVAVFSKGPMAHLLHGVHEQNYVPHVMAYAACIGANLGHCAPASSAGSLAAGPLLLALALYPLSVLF

[4] = molecular target: Eukaryotic translation initiation factor 4E (Mus musculus, UniProt P63073); assay: eIF4E–eIF4G protein interaction inhibitors, dose response, biochemical, TR-FRET (AID 855); assay type: functional;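 note: potency for disrupting eIF4E binding to eIF4GI seen as loss of FRET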
[5] = molecular target: Glucose-6-phosphate 1-dehydrogenase (Homo sapiens, UniProt P11413); assay: human G6PD enzyme inhibitors, dose response, selectivity assay for P. falciparum G6PD inhibitor project, biochemical, fluorescence (AID 504792); assay type: functional
[6] = molecular target: T3, DNA dC->dU-editing enzyme APOBEC-3G (Homo sapiens, UniProt Q9HC16); assay: Dose Response confirmation of small molecule APOBEC3G DNA Deaminase Inhibitors via a fluorescence-based single-stranded DNA deaminase assay. [Related pubchem assays (depositor defined):AID493012, AID493028]; assay type: functional
[7] = molecular target: T4, DNA dC->dU-editing enzyme APOBEC-3A (Homo sapiens, UniProt P31941); assay: APOBEC3A DNA deaminase inhibitors, dose response, biochemical (AID 504722); assay type: functional
[8] = molecular target: T4, DNA dC->dU-editing enzyme APOBEC-3A; assay: Dose Response confirmation of small molecule APOBEC3A DNA Deaminase Inhibitors via a fluorescence-based single-stranded DNA deaminase assay. [Related pubchem assays (depositor defined):AID493011, AID493024]; assay type: functional
[9] = molecular target: T3, DNA dC->dU-editing enzyme APOBEC-3G; assay type: functional
Troponin, cardiac muscle = Troponin, cardiac muscle (Homo sapiens, UniProt P19429+P45379+P63316); assay: Fluorescence-based biochemical high throughput dose response assay for activators of the calcium sensitivity of cardiac Regulated Thin Filaments (RTF). [Related pubchem assays (depositor defined):AID493008, AID493018, AID504382, AID504383]; assay type: protein-complex assay
[10] = molecular target: T1, G-protein coupled receptor 55; assay: GPR55 antagonists blocking LPI-driven arrestin recruitment, primary screen, imaging, U2OS, beta-arrestin-GFP, LPI agonist (AID 2013); assay type: functional;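 note: antagonist potency measured as reduced agonist-driven arrestin aggregation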
[11] = molecular target: Glyceraldehyde-3-phosphate dehydrogenase (Homo sapiens, UniProt P04406)
[12] = microbe, parasite or virus in culture; assay type: functional; details: Mycobacterium tuberculosis
[13] = molecular target: FAD-linked sulfhydryl oxidase ALR (Homo sapiens, UniProt P55789); assay: inhibitors of human ALR sulfhydryl oxidase, dose response, biochemical, H2O2 detection, luminescence, cherry-pick (AID 493248)
[14] = molecular target: T5, Rac GTPase-activating protein 1 (Homo sapiens, UniProt Q9H0H5); assay: MgcRacGAP GTPase-activating activity inhibitors, confirmation, biochemical, ADP Hunter fluorescence, primary and confirmatory (AID 624330); assay type: functional
T5 sequence (Q9H0H5 whole entry): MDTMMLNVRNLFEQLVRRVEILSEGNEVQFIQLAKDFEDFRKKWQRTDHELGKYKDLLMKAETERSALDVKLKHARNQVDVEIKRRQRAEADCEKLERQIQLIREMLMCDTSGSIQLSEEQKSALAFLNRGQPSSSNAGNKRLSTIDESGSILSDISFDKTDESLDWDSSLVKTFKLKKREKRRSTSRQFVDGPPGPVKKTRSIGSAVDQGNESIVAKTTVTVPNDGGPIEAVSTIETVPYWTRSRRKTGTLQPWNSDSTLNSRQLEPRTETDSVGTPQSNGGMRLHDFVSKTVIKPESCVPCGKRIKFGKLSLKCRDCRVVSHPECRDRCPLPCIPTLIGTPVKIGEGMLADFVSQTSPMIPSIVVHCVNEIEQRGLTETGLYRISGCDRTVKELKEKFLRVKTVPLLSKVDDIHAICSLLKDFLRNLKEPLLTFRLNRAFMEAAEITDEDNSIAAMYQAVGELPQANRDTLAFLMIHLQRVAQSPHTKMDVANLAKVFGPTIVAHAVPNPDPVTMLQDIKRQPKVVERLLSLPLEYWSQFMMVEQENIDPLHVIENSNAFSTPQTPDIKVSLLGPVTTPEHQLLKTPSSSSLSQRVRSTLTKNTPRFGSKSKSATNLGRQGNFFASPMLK

[15] = NIH-3T3 fibroblast cytotoxicity, dose response, cytotoxicity control, cell-based, fluorescence, Alamar Blue, secondary assay (AID 2327); assay type: functional;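 note: NIH-3T3 mouse fibroblasts cultured with fluconazole at 8 µg/mL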
[16] = molecular target: Transitional endoplasmic reticulum ATPase (Homo sapiens, UniProt P55072); assay: p97 ATPase inhibitors, dose response, biochemical (AID 1534)
[17] = C. albicans growth with fluconazole, confirmation, fluorescence, retest (AID 2467); assay type: functional, cell-based
Streptokinase A = molecular target: T6, Streptokinase A (Streptococcus pyogenes serotype M1, UniProt P10520); assay: S. pyogenes streptokinase expression inhibitors, potency, dose response, plasminogen activation absorbance, OD405 (AID 1914); assay type: functional, Streptococcus pyogenes M1 GAS;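 note: secreted streptokinase activity via plasminogen activation per viability signal from cell pellet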
T6 sequence (P10520 whole entry): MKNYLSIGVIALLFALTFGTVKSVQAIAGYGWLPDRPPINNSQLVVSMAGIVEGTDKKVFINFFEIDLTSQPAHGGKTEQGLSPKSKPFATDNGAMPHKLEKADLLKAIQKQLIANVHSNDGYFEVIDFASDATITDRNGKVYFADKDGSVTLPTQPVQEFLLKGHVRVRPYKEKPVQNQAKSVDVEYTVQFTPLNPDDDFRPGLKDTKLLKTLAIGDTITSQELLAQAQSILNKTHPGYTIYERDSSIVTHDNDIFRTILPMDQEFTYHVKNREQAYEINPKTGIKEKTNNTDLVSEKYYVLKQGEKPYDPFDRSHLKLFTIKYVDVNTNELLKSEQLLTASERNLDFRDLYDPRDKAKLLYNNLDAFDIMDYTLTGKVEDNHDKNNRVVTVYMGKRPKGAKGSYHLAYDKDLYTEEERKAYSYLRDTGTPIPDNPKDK

[18] = molecular target: Transitional endoplasmic reticulum ATPase (Homo sapiens, UniProt P55072, C522A); assay: C522A mutant p97 ATPase inhibitors, dose response, counter-screen for p97 inhibitor project, biochemical, luminescence (AID 1544)
Streptococcus = assay: Group A Streptococcus viability loss, dose response, counter-screen for streptokinase expression inhibitor project, luminescence, BacTiterGlo (AID 1915); assay type: functional, organism-based;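 note: potency for reduction of bacterial viability or growth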
[19] = system: Streptococcus sp. 'group A'; assay: growth inhibition of control SK(-) GAS strain, dose response, counter-screen for streptokinase expression inhibitor project, luminescence, kanamycin, BacTiterGlo, confirmation (AID 1900); assay type: functional, organism-based
Caspase-6 = molecular target: T7, Caspase-6 (Homo sapiens, UniProt P55212); assay: human caspase-6 inhibitors, dose response, biochemical, VEID-R110 fluorescence, cherry-pick (AID 720632)
T7 sequence (P55212 whole entry): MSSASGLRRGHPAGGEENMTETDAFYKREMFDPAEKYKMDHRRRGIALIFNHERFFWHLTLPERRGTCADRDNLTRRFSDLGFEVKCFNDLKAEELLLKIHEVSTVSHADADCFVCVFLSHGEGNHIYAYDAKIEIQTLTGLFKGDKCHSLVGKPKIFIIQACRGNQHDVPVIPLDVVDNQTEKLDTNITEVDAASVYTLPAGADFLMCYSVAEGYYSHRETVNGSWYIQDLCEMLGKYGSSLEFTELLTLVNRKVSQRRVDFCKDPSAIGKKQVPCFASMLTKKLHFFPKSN

[20] = molecular target: T8, Carboxy-terminal domain RNA polymerase II polypeptide A small phosphatase 1 (Homo sapiens, UniProt Q9GZU7); assay: inhibitors of CTDSP1, concentration-response testing, biochemical assay, absorbance-based, actives from ultra-high-throughput screening (AID 540297); assay type: functional
T8 sequence (Q9GZU7 whole entry): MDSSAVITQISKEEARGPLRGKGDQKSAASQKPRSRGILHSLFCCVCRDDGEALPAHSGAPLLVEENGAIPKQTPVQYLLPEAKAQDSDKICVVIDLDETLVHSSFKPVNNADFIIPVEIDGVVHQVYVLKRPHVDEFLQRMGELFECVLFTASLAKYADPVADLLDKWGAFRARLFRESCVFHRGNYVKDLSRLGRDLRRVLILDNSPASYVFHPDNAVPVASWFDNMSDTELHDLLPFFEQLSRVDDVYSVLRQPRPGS

T4 sequence (P31941 whole entry): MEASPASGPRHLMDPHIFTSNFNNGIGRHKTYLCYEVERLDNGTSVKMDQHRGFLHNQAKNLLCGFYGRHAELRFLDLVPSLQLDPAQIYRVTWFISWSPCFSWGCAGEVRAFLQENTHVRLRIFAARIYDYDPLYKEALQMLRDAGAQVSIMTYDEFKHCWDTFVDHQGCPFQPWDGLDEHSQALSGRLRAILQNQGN
Sequence of Alkaline phosphatase, placental type (P05187 whole entry): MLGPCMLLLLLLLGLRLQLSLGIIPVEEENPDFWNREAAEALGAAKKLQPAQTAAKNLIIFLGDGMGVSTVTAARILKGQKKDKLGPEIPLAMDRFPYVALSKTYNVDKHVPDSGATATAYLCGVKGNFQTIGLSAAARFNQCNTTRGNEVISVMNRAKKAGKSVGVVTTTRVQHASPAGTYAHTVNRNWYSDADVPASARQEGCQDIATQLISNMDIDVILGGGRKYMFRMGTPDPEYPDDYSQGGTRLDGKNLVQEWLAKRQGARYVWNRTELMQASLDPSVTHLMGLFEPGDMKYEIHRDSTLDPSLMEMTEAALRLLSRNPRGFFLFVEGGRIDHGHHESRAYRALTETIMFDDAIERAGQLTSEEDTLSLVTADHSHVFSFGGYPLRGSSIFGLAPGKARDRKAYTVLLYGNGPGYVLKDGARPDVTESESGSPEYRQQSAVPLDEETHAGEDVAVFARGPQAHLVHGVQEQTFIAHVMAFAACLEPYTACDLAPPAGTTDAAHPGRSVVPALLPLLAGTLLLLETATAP
Sequence of Glyceraldehyde-3-phosphate dehydrogenase (P04406 whole entry): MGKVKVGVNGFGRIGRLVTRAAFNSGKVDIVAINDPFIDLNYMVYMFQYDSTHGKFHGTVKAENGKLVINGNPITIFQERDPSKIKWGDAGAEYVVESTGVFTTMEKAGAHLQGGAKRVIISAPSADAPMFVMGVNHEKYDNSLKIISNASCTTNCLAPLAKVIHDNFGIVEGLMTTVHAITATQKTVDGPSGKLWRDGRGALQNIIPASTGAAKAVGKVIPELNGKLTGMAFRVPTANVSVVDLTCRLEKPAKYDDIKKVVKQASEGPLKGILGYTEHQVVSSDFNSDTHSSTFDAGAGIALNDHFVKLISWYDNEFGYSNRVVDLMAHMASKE
T1 sequence (Q9Y2T6 whole entry): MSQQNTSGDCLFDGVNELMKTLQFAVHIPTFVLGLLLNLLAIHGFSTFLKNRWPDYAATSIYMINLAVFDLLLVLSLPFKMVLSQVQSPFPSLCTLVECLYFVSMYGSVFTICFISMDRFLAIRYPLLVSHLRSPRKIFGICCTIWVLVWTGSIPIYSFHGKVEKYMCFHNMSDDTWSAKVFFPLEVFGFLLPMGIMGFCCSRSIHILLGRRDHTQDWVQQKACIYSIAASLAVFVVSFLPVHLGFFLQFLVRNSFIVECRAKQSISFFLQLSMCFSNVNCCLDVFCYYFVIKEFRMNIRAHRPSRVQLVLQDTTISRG
T3 sequence (Q9HC16 whole entry): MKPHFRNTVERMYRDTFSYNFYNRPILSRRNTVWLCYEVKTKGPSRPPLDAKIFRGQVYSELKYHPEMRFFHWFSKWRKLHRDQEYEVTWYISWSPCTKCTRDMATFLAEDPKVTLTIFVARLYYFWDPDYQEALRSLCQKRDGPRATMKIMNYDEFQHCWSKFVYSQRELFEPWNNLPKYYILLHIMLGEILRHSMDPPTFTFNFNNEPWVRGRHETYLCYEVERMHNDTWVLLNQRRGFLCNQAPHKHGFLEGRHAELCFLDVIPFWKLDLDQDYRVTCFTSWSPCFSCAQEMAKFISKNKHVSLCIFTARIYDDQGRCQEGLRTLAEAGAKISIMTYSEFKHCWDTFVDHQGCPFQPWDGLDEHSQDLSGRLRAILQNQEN
Sequence of Cytochrome P450 3A4 (P08684 whole entry): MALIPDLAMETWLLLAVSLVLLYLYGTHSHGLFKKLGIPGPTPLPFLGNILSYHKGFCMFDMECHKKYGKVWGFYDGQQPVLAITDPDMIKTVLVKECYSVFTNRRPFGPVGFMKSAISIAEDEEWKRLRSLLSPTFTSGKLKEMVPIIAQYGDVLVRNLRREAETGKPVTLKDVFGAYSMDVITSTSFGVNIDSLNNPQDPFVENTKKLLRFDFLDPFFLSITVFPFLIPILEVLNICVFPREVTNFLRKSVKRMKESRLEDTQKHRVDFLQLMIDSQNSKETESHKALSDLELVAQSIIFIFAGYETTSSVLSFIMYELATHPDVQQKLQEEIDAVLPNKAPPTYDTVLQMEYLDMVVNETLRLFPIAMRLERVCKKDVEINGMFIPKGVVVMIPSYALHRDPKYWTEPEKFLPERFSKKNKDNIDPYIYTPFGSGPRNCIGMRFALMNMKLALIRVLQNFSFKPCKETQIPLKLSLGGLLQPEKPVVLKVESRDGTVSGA
Sequence of Transitional endoplasmic reticulum ATPase (Homo sapiens, UniProt P55072) (P55072 whole entry): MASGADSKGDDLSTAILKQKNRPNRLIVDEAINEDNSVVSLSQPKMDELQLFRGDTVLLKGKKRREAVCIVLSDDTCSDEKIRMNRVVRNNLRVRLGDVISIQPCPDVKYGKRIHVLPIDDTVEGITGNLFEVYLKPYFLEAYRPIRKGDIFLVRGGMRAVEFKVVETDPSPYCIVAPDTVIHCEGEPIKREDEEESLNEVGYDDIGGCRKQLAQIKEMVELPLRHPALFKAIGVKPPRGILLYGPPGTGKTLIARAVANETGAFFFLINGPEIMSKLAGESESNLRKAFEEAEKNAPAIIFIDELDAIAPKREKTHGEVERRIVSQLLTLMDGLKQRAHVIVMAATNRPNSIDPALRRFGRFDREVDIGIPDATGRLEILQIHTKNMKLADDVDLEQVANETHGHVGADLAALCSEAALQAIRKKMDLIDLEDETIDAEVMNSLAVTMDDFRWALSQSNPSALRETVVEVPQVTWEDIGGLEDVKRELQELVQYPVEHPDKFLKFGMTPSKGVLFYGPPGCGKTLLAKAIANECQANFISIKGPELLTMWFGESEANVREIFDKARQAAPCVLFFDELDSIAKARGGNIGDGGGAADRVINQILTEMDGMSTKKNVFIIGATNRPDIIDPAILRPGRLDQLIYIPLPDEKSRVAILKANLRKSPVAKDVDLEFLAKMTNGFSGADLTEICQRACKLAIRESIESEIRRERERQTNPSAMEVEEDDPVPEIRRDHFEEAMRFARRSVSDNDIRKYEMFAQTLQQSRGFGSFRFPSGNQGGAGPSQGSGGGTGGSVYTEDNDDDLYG
Sequence of Eukaryotic translation initiation factor 4E (P63073 whole entry): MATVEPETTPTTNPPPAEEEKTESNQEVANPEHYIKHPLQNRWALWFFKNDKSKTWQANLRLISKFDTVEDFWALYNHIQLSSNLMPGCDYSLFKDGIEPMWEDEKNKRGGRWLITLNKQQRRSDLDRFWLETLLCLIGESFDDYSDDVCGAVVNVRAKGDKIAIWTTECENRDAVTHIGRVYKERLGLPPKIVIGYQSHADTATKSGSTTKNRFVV
Sequence of Glucose-6-phosphate 1-dehydrogenase (P11413 whole entry): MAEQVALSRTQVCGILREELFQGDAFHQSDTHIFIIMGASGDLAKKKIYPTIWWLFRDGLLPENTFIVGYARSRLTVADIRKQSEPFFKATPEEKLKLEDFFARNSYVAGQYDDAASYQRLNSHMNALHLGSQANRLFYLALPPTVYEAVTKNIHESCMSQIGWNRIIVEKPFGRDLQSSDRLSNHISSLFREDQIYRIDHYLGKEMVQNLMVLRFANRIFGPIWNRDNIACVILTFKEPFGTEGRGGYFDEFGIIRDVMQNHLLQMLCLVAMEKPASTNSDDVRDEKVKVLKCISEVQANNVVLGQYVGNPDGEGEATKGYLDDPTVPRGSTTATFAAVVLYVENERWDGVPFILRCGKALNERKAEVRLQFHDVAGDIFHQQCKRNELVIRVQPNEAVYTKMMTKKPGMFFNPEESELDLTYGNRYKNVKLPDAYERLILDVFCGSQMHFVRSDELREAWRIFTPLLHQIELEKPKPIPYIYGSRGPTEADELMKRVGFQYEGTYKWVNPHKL
Sequence of Transitional endoplasmic reticulum ATPase (Homo sapiens, UniProt P55072, C522A) (P55072 2-806 C522A limits assumed): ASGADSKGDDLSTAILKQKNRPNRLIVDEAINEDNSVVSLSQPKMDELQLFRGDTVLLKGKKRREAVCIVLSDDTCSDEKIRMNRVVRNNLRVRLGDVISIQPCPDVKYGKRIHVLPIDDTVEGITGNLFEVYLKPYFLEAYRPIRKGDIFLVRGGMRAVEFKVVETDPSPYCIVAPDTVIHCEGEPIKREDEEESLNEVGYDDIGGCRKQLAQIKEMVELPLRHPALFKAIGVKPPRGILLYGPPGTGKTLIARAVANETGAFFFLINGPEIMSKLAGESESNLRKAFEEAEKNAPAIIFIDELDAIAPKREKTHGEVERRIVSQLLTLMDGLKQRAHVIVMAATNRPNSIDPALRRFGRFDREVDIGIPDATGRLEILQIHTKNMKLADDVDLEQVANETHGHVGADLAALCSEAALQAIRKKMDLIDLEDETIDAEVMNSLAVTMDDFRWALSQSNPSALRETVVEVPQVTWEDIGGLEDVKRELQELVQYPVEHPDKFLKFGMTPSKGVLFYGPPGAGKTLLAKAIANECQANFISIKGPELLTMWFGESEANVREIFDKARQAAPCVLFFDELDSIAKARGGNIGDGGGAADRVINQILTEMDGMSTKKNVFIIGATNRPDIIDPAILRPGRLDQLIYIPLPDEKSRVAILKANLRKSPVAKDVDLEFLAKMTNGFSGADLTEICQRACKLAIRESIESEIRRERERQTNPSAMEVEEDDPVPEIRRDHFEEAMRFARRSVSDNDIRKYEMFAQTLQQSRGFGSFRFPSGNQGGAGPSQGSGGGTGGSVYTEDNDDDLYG
Sequence of FAD-linked sulfhydryl oxidase ALR (P55789 whole entry): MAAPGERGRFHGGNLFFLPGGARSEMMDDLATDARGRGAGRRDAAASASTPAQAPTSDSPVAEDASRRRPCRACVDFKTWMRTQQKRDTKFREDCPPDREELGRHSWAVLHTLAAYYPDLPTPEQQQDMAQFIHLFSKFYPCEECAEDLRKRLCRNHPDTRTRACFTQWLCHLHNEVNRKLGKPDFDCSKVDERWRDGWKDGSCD

Cc1cccc(OC(=O)c2ccc3nccnc3c2)c1
IC50 (cells): 9.63 µM (active)

COc1ccc(SC[C@H](CC(C)C)N2CCN(CCc3ccccc3)CCC2=O)cc1
EC50 [1]: 10.8 µM (inactive)

CCN1CCCC1Cn1c(-c2ccccc2)nc2c(N3CCOCC3)nc(C)nc21 (stereo not drawn)
AC50 (Cytochrome P450 3A4): 12.6 µM (inconclusive)

CCOC(=O)COc1ccc(C(=O)c2ccccc2)c(O)c1
IC50 (cells): 3.02 µM (active)

CC(=O)Oc1ccc2c(c1)CCC1C2CC[C@]2(C)C(OC(C)=O)CCC12 (stereo partly drawn)
AC50 (Cytochrome P450 3A4): 31.6 µM (inconclusive)

Cc1ccc(C)c(NC(=S)NC(NC(=O)Cc2cccc3ccccc23)C(Cl)(Cl)Cl)c1 (stereo not drawn)
IC50 [2]: 11.5 µM (active)
IC50 [3]: > 100 µM (inactive)

COC(=O)[C@@H]1C[C@@]2(O)[C@H](O)[C@H](O)[C@H](O)C[C@H]2N1Cc1ccc(C(F)(F)F)cc1
AC50 (Cytochrome P450 3A4): 20 µM (inconclusive)

CCOC(=O)/C(C#N)=C/c1ccc(OC(=O)c2ccccn2)cc1
IC50 [4]: > 64 µM (inactive)

Cc1ccc(NC(=O)Cn2sc3nc(C)cc(C)c3c2=O)c(Cl)c1
IC50 [5]: 30.5 µM (inactive)
IC50 [6]: 4.88 µM (active)
IC50 [7]: > 100 µM (inactive)

COC(=O)C1=C(C)N(Cc2ccccc2)C(NCc2ccc(OC)cc2)=N[C@H]1c1ccccc1
IC50 [8]: 5.01 µM (active)
IC50 [9]: 10.8 µM (active)

COC(=O)c1ccc(Cn2cc(C(F)(F)F)cc([N+](=O)[O-])c2=O)cc1
IC50 (cells): 1.28 µM (active)

O=C(/C=C/c1cn(CC(O)CN2CCCCC2)c2ccccc12)c1cccs1 (stereo not drawn)
EC50 (Troponin, cardiac muscle): 17.9 µM (inactive)

N#CC1=C(S)N(c2ccccc2)C(c2ccc(-c3cc(Cl)ccc3Cl)o2)NC1=O (stereo not drawn)
EC50 [1]: > 32 µM (inactive)

COc1ccc(C23CC4CC(CC(C4)C2)C3)cc1C(=O)NCCN(C)C
IC50 [10]: 1.37 µM (active)

COc1ccc(-c2c(-c3ccc(OCC(=O)NN)cc3O)n[nH]c2C(F)(F)F)cc1
IC50 [10]: 2.75 µM (active)

CC1(C)CC(=O)c2c(-c3ccc(F)cc3)n[nH]c2C1
IC50 [11]: > 100 µM (not active)
IC50 [2]: > 100 µM (inactive)
IC50 [3]: 5.95 µM (active)

O=C(NNC(=S)NC(=O)c1ccccc1[N+](=O)[O-])c1ccccc1[N+](=O)[O-]
IC50 [2]: > 100 µM (inactive)

O=C1c2ccccc2C(=O)N1c1nncs1
IC50 [11]: > 100 µM (not active)
IC50 [3]: > 100 µM (inactive)

COC(=O)C1=C(C)N(CC2CC2)C(=NCCN2CCOCC2)N[C@H]1c1ccccc1
IC50 [8]: 5.16 µM (active)
IC50 [9]: 4.91 µM (active)

COc1ccc(-c2csc3nc(-c4ccccc4OC)oc(=O)c23)cc1
EC50 [1]: 25 µM (inactive)
CC50 [12]: 30.8 µM (active)

O=C(O)c1cc(NS(=O)(=O)c2ccc(NC3CCCCC3)c([N+](=O)[O-])c2)cc(C(=O)O)c1
IC50 [10]: 5.62 µM (active)

Sc1nc(-c2ccc(Cl)cc2Cl)n[nH]1
IC50 [11]: > 100 µM (not active)
IC50 [2]: > 100 µM (inactive)
IC50 [3]: > 100 µM (inactive)

CC(NC(=O)COc1ccc(-c2ccccc2)cc1)C1CCCO1 (stereo not drawn)
IC50 (cells): 45.6 µM (active)

COc1ccc(/C=N/NC(=O)c2cc(C34CC5CC(CC(C5)C3)C4)[nH]n2)cc1OC
IC50 [10]: 2.74 µM (active)

Cc1ccc(/C=N/n2c(S)nnc2-c2cccnc2)s1
AC50 [13]: 2.34 µM (active)
IC50 [14]: 53.9 µM (active)
IC50 [6]: 2 µM (active)
IC50 [7]: > 100 µM (inactive)

Cc1ccc(SC/C(O)=C(\C#N)c2nc3ccccc3s2)cc1
EC50 [15]: 138 µM (active)
IC50 [16]: > 50 µM (not active)
EC50 [17]: 0.425 µM (active)
EC50 (Streptokinase A): > 150 µM (not active)
IC50 [18]: > 50 µM (not active)
EC50 (Streptococcus): 7.74 µM (active)
EC50 [19]: 2.95 µM (active)

O=C1C2C(C(=O)N1/N=C/c1cc([N+](=O)[O-])c(O)cc1O)C1C=CC2C12CC2 (stereo not drawn)
IC50 [8]: 11.3 µM (active)
AC50 (Caspase-6): 3.41 µM (active)
IC50 [9]: 40.2 µM (active)
IC50 [20]: 4.9 µM (active)

O=C(CO/N=C/c1ccccc1OC(F)F)NCc1cccs1
EC50 (Troponin, cardiac muscle): > 71.5 µM (inactive)

Cc1c2ccccc2cc(Cc2ccccc2)[n+]1C
IC50 [8]: 3.64 µM (active)
IC50 [9]: 2.98 µM (active)
